Reference: patent publication US12692247B2, “Phenyl- and pyridopyrazole derivatives as inhibitors of DDR1” (Redx Pharma Limited, priority 2021, dated 2026)

Experiments:
[1] = target: T1, Recombinant human DDR1 (Homo sapiens, UniProt Q08345); assay: LanthaScreen Eu Kinase Binding Assay, DDR1; conditions: recombinant human DDR1 (2.5 nM; aa440-876, GST tag), Kinase Tracer 178 5 nM, time-resolved fluorescence, at least two independent replicates; read-out: DDR1 pIC50 (converted)
T1 construct: Recombinant human DDR1 (2.5 nM; aa440-876 containing a GST tag)
Procedure: (§1) DDR1 and DDR2 Biochemical Assay Method
(§2) The capacity of compounds to bind to DDR1 and DDR2 was quantified using a LanthaScreen Eu Kinase Binding Assay. Recombinant human DDR1 (2.5 nM; aa440-876 containing a GST tag) and DDR2 (1.75 nM; aa427-855 containing a GST tag) were diluted in assay buffer (50 mM HEPES pH7.3, 10 mM MgCl2, 1 mM EGTA and 0.01% Tween) with various concentrations of compound in a 384-well plate and a volume of 5 uL. After a 30-minute incubation at room temperature, 2.5 uL of Eu-anti GST antibody (diluted to 1 nM in assay buffer) plus Kinase Tracer 178 (diluted in assay buffer to 5 nM for DDR1 and 10 nM for DDR2) were added to the plate. Following 60-minute incubation at room temperature, time-resolved fluorescence was measured on a BMG Labtech PHERAstar plate reader. DMSO (1%) and reference compound (1 μM) were used to generate the Max and Min assay signals, respectively. Data was analysed using a four-parameter logistic model to calculate IC50 values, with at least two independent replicates were performed for each compound.

[2] = target: T2, Recombinant human DDR2 (Homo sapiens, UniProt Q16832); assay: LanthaScreen Eu Kinase Binding Assay, DDR2; conditions: recombinant human DDR2 (1.75 nM; aa427-855, GST tag), Kinase Tracer 178 10 nM, time-resolved fluorescence, at least two independent replicates; read-out: DDR2 pIC50 (converted)
T2 construct: DDR2 (1.75 nM; aa427-855 containing a GST tag)
T2 sequence (Q16832 427-855): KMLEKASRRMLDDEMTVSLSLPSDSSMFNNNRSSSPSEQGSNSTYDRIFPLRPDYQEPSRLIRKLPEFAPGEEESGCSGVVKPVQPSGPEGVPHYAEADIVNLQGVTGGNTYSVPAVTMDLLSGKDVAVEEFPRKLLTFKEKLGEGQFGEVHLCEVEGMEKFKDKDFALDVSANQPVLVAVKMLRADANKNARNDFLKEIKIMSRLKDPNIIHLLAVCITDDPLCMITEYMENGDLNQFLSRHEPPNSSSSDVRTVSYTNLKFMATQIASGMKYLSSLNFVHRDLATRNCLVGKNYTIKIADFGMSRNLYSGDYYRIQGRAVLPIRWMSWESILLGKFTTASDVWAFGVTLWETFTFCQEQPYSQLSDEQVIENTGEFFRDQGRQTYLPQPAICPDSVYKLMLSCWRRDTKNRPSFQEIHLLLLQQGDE
Procedure: as §1, §2

T1 sequence (Q08345 440-876 isoform Q08345-2): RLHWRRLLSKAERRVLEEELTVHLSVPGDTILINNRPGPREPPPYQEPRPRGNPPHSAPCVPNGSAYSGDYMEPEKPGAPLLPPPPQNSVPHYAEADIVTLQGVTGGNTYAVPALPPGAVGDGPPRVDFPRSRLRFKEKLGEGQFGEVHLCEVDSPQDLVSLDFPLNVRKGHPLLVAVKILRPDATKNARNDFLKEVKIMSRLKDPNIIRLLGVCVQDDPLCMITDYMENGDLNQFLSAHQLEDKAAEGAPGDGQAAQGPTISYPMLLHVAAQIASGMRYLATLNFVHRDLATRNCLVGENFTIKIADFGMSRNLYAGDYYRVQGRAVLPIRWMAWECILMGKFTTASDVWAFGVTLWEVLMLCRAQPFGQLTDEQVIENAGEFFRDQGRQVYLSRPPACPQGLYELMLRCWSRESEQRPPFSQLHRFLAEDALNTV

IC50 [1] [nM] | IC50 [2] [nM] | Structure (SMILES)
< 10 | 10 to 100 | CN(C)Cc1ccc(NC(=O)Cn2ccc3cccc(Nc4ccc5c(cnn5C)c4)c3c2=O)cc1C(F)(F)F [Example 112, N-[4-[(dimethylamino)methyl]-3-(trifluoromethyl)phenyl]-2-[8-[(1-methylindazol-5-yl)amino]-1-oxo-2-isoquinolyl]acetamide]
100 to 1000 | ≥ 1000 | C[C@@H]1COC[C@H](C)N1C(=O)Cn1ccc2cccc(Nc3ccc4c(cnn4C)c3)c2c1=O [Example 96, 2-{2-[(3R,5S)-3,5-dimethylmorphin-4-yl]-2-oxoethyl}-8-[(1-methyl-1H-indazol-5-yl)amino]-1,2-dihydroisoquinolin-1-one]
100 to 1000 | ≥ 1000 | Cn1ncc2cc(Nc3cccc4ccn(CC(=O)Nc5cncnc5)c(=O)c34)ccc21 [Example 25, 2-[8-[(1-methylindazol-5-yl)amino]-1-oxo-2-isoquinolyl]-N-pyrimidin-5-yl-acetamide]
< 10 | 10 to 100 | Cn1ncc2cc(Nc3cccc4ccn(CC(=O)N5CCC[C@H]5C(F)F)c(=O)c34)ccc21 [Example 131, 2-[2-[(2S)-2-(difluoromethyl)pyrrolidin-1-yl]-2-oxo-ethyl]-8-[(1-methylindazol-5-yl)amino]isoquinolin-1-one]
< 10 | ≥ 1000 | Cn1ncc2cc(Nc3cccc4ccn(CC(=O)NCC(F)(F)F)c(=O)c34)cc(C#N)c21 [Example 119, 2-(8-((7-cyano-1-methyl-1H-indazol-5-yl)amino)-1-oxoisoquinolin-2(1H)-yl)-N-(2,2,2-trifluoroethyl)acetamide]
< 10 | 10 to 100 | Cn1ncc2cc(Nc3cccc4ccn(CC(=O)N5CCC[C@H]5CF)c(=O)c34)ccc21 [Example 136, 2-[2-[(2S)-2-(fluoromethyl)pyrrolidin-1-yl]-2-oxo-ethyl]-8-[(1-methylindazol-5-yl)amino]isoquinolin-1-one]
< 10 | 10 to 100 | C[C@H](NC(=O)Cn1ccc2cccc(Nc3ccc4c(cnn4C)c3)c2c1=O)C(F)(F)F [Example 19, 2-[8-[(1-methylindazol-5-yl)amino]-1-oxo-2-isoquinolyl]-N-[(1S)-2,2,2-trifluoro-1-methyl-ethyl]acetamide]
10 to 100 | 100 to 1000 | Cn1ncc2cc(Nc3cccc4ccn(CC(=O)NC5(C(F)(F)F)CC5)c(=O)c34)ccc21 [Example 21, 2-[8-[(1-methylindazol-5-yl)amino]-1-oxo-2-isoquinolyl]-N-[1-(trifluoromethyl)cyclopropyl]acetamide]
100 to 1000 | ≥ 1000 | Cn1ncc2cc(Nc3cccc4ccn(CC(=O)Nc5cccnc5)c(=O)c34)ccc21 [Example 24, 2-[8-[(1-methylindazol-5-yl)amino]-1-oxo-2-isoquinolyl]-N-(3-pyridyl)acetamide]
100 to 1000 | 100 to 1000 | C[C@@H](NC(=O)Cn1ccc2cccc(Nc3ccc4c(cnn4C)c3)c2c1=O)C(F)(F)F [Example 20, 2-[8-[(1-methylindazol-5-yl)amino]-1-oxo-2-isoquinolyl]-N-[(1R)-2,2,2-trifluoro-1-methyl-ethyl]acetamide]
< 10 | 10 to 100 | Cn1ncc2cc(Nc3cccc4ccn(CC(=O)N[C@@H](C5CC5)C(F)(F)F)c(=O)c34)ccc21 [Example 57, N-[(1S)-1-cyclopropyl-2,2,2-trifluoro-ethyl]-2-[8-[(1-methylindazol-5-yl)amino]-1-oxo-2-isoquinolyl]acetamide]

Second part, the compound before the results:

Structure (SMILES) | IC50 [1] [nM] | IC50 [2] [nM]
Cn1ncc2cc(Nc3cccc4ccn(CC(=O)N5C6CCC5COC6)c(=O)c34)ccc21 [Example 97, 8-[(1-methyl-1H-indazol-5-yl)amino]-2-(2-{3-oxa-8-azabicyclo[3.2.1]octan-8-yl}-2-oxoethyl)-1,2-dihydroisoquinolin-1-one] | 100 to 1000 | ≥ 1000
Cn1ncc2cc(Nc3cccc4ccn(CC(=O)N5CCC[C@H]5C(C)(C)O)c(=O)c34)ccc21 [Example 60, 2-[2-[(2S)-2-(1-hydroxy-1-methyl-ethyl)pyrrolidin-1-yl]-2-oxo-ethyl]-8-[(1-methylindazol-5-yl)amino]isoquinolin-1-one] | 100 to 1000 | ≥ 1000
Cn1ncc2cc(Nc3cccc4ccn(CC(=O)NCC56CCCN5CCC6)c(=O)c34)ccc21 [Example 138] | ≥ 1000 | ≥ 1000
COC(=O)C1CCN(C(=O)Cn2ccc3cccc(Nc4ccc5c(cnn5C)c4)c3c2=O)C1 (stereo not shown) [Example 73, methyl 1-[2-[8-[(1-methylindazol-5-yl)amino]-1-oxo2-isoquinolyl]acetyl]pyrrolidine-3-carboxylate] | 100 to 1000 | ≥ 1000
Cn1ncc2cc(Nc3cccc4ccn(CC(=O)Nc5cnoc5)c(=O)c34)cnc21 [Example 101] | 10 to 100 | 100 to 1000
CC(=O)c1cccc(NC(=O)Cn2ccc3cccc(Nc4ccc5c(cnn5C)c4)c3c2=O)c1 [Example 32, N-(3-acetylphenyl)-2-[8-[(1-methylindazol-5-yl)amino]-1-oxo-2-isoquinolyl]acetamide] | < 10 | 10 to 100
CN(c1ccc2c(cnn2C)c1)c1cccc2ccn(CC(=O)Nc3cccc(C(F)(F)F)c3)c(=O)c12 [Example 144, 2-[8-[methyl-(1-methylindazol-5-yl)amino]-1-oxo-2-isoquinolyl]-N-[3-(trifluoromethyl)phenyl]acetamide] | 10 to 100 | 100 to 1000
Cn1ncc2cc(Nc3cccc4ccn(CC(=O)Nc5ccon5)c(=O)c34)ccc21 [Example 74, N-isoxazol-3-yl-2-[8-[(1-methylindazol-5-yl)amino]-1-oxo-2-isoquinolyl]acetamide] | 10 to 100 | 100 to 1000
Cn1ncc2cc(Nc3cccc4ccn(CC(=O)N5CCCCC5)c(=O)c34)ccc21 [Example 93] | 100 to 1000 | 100 to 1000
Cn1cnc(NC(=O)Cn2ccc3cccc(Nc4ccc5c(cnn5C)c4)c3c2=O)c1 [Example 81, N-(1-methylimidazol-4-yl)-2-[8-[(1-methylindazol-5-yl)amino]-1-oxo-2-isoquinolyl]acetamide] | 10 to 100 | ≥ 1000
CN(C)CCc1ccc(NC(=O)Cn2ccc3cccc(Nc4ccc5c(cnn5C)c4)c3c2=O)cc1C(F)(F)F [Example 133, N-[4-[(dimethylamino)ethyl]-3-(trifluoromethyl)phenyl]-2-[8-[(1-methylindazol-5-yl)amino]-1-oxo-2-isoquinolyl]acetamide] | 10 to 100 | 100 to 1000
Cn1ncc2cc(Nc3cccc4ccn(CC(=O)NCC(F)(F)F)c(=O)c34)ccc21 [Example 3, 2-[8-[(1-methylindazol-5-yl)amino]-1-oxo-2-isoquinolyl]-N-(2,2,2-trifluoroethyl)acetamide] | 10 to 100 | 100 to 1000
Cn1ncc2cc(Nc3cccc4ccn(CC(=O)NCC5CC5)c(=O)c34)ccc21 [Example 16] | 10 to 100 | 100 to 1000
Cn1ncc2cc(Nc3cccc4ccn(CC(=O)N5CCOC(C(F)(F)F)C5)c(=O)c34)ccc21 (stereo not shown) [Example 43, 8-[(1-methylindazol-5-yl)aminio]-2-[2-oxo-2-[2-(trifluoromethyl)morpholin-4-yl]ethyl]isoquinolin-1-one] | 10 to 100 | ≥ 1000
CCNC(=O)Cn1ccc2cccc(Nc3ccc4c(cnn4C)c3)c2c1=O [Example 14, N-ethyl-2-[8-[(1-methylindazol-5-yl)amino]-1-oxo-2-isoquinolyl]acetamide] | 100 to 1000 | ≥ 1000
Cn1ncc2cc(Nc3cccc4ccn(CC(=O)N5CCCC(C(F)(F)F)C5)c(=O)c34)ccc21 (stereo not shown) [Example 121] | 10 to 100 | 100 to 1000
Cn1ncc2cc(Nc3cccc4ccn(CC(=O)Nc5cc(C(F)(F)F)no5)c(=O)c34)ccc21 [Example 48, 2-[8-[(1-methylindazol-5-yl)amino]-1-oxo-2-isoquinolyl]-N-[3-(trifluoromethyl)isoxazol-5-yl]acetamide] | 10 to 100 | 10 to 100
Cc1n[nH]c2cc(Nc3cccc4ccn(CC(=O)Nc5cccc(C(F)(F)F)c5)c(=O)c34)ccc12 [Example 159, 2-[8-[(3-methyl-1H-indazol-6-yl)amino]-1-oxo-2-isoquinolyl]-N-[3-(trifluoromethyl)phenyl]acetamide] | 10 to 100 | 100 to 1000
